Source: article PMC4255673 (Analytical Chemistry, 2014)
“Also recorded” adds a separate entry of the source. Bridges are numbered along the chain shown (N, C = ends).

Assays:
KDM4C [1] = assay: In vitro TR-FRET demethylase assay / KDM4C inhibition; assay type: biochemical; settings: nonbinding control peptide; assay not described
KDM4C [2] = assay: HDX-MS of KDM4C ± peptide; assay type: binding
KDM4C [3] = settings: cited from earlier work; for inhibition constants: TR-FRET demethylase assay; for apparent increase in activity of second generation peptides over initial leads: vs initial peptide leads
KDM4C [4] = settings: cell-based assay; cited from earlier work

Row | Substance | KDM4C inhibition (control peptide) (KDM4C [1]) | isotopic distribution / EX1 kinetics in site D (331–344) (KDM4C [2]; KDM4C 331–344, HDX time course, bimodal fit with HX-Express, peptide 160 μM) | HDX of helix 359–370 (KDM4C [2]; KDM4C 359–370, Figure S1 / data not shown) | inhibition constants (KDM4C [3]) | apparent increase in activity of second generation peptides over initial leads (KDM4C [3]) [fold] | inhibitory activity in cells (KDM4C [4])
1 | H-ACKWMDDGYCGGG-NH2 (disulfide 2-10 (inferred)) [Peptide 4] | noninhibitory |  |  |  |  | 
2 | H-ACYTRNMNQC-NH2 (also: sidechain bridge or staple (positions not given here)) [Peptide 2] |  | confirmed the occurrence of EX1 kinetics | the perturbation in HDX along site 359–370 was only significant after 10 min; also recorded: Helix 359–370 shows reduced HDX (significant only after 10 min; see Figure S1, Supporting Information) but no EX1 exchange kinetics | in the high μM range | 10 | none of the peptides showed any inhibitory activity
3 | H-CKWMADGYC-NH2 (disulfide 1-9 (inferred)) [Peptide 3] |  |  |  | in the high μM range | 10 | none of the peptides showed any inhibitory activity
